From PMC6240031, “CYP6AE gene cluster knockout in Helicoverpa armigera reveals role in detoxification of phytochemicals and insecticides” (Nature Communications, 2018) come the findings set out here.

Assay in all cases: substrate depletion, UPLC-MS/MS
Assay type in all cases: biochemical
Common to all, as to settings: 20 uM substrate, NADPH regeneration system, 0.1 M potassium phosphate pH 7.4, 30 C, 1 h, microsomes

The target of one assay is T1, CYP6AE19 (Helicoverpa armigera, UniProt A0A068EVL0).
T1 construct: full ORF, baculovirus (Bac-to-Bac) in High Five cells, microsomes, co-expressed with H. armigera cytochrome P450 reductase (HaCPR)
T1 sequence (A0A068EVL0 1-528): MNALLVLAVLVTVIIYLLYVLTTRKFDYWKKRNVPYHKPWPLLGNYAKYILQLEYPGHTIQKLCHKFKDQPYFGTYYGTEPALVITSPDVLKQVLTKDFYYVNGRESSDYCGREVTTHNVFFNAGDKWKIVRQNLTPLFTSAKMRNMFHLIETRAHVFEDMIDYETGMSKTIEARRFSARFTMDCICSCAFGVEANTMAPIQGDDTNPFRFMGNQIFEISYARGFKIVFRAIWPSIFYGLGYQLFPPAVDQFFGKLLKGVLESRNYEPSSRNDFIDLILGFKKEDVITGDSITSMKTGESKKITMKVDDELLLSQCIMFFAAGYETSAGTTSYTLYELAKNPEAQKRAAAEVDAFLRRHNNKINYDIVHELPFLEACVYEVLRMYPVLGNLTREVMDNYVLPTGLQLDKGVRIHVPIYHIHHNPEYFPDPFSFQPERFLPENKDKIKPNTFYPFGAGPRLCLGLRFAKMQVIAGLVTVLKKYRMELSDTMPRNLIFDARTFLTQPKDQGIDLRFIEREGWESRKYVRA

The target of the next assay is T2, CYP6AE14 (Helicoverpa armigera, UniProt A0A068EU65).
T2 construct: full ORF, baculovirus (Bac-to-Bac) in High Five cells, microsomes, co-expressed with H. armigera cytochrome P450 reductase (HaCPR)
T2 sequence (A0A068EU65 1-526): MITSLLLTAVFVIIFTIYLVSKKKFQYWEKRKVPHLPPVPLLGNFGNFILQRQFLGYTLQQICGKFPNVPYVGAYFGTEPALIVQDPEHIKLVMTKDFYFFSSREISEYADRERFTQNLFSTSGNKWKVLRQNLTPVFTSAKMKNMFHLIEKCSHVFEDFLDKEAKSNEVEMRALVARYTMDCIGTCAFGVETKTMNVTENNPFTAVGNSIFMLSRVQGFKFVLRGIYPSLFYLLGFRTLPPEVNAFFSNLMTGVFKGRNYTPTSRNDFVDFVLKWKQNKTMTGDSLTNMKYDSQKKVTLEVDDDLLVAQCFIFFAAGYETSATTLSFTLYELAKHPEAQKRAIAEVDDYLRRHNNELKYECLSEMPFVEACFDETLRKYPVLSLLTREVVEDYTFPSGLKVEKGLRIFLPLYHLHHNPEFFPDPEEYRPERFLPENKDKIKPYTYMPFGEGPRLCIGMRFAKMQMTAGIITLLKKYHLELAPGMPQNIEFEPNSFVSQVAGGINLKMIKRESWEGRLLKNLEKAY

The next assay deals with T3, CYP6AE11 (Helicoverpa armigera, UniProt A0A068ETU4).
T3 construct: full ORF, baculovirus (Bac-to-Bac) in High Five cells, microsomes, co-expressed with H. armigera cytochrome P450 reductase (HaCPR)
T3 sequence (A0A068ETU4 1-522): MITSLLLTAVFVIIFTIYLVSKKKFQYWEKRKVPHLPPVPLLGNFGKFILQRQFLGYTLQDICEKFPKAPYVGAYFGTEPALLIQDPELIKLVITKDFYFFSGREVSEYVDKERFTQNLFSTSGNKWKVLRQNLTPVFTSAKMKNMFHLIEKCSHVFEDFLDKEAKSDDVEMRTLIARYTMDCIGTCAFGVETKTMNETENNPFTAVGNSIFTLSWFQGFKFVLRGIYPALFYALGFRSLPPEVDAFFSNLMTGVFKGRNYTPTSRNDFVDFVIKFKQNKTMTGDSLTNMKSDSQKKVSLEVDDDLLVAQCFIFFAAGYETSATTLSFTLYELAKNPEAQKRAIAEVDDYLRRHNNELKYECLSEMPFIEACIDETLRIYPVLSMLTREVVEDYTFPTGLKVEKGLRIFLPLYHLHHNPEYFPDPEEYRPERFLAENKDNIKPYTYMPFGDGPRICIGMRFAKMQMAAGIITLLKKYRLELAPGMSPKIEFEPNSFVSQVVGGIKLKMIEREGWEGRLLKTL

Take `CCCCCCCCCCCC(C)=O` [2-tridecanone]: the “substrate depletion, UPLC-MS/MS” value at CYP6AE19 was 2-tridecanone was metabolized by three CYP6AE P450s: CYP6AE11, CYP6AE14, and CYP6AE19; at CYP6AE14, 2-tridecanone was metabolized by three CYP6AE P450s: CYP6AE11, CYP6AE14, and CYP6AE19; on CYP6AE11 it was 2-tridecanone was metabolized by three CYP6AE P450s: CYP6AE11, CYP6AE14, and CYP6AE19.
